≈ marks a conversion by molar mass, not a printed value.
Legend:
[1] = system: E. coli D21 and LPS outer core polysaccharide truncated mutant strains; assay: MIC ratio against LPS-truncated E. coli mutants; assay type: cell-based; conditions: oligosaccharide-truncated mutants vs wild type D21; increase seen against D21e9 lacking outer core polysaccharides
From the text: LPS is a complex glycosylated lipid molecule comprising of a hydrophobic lipid A and core oligosaccharides. The core oligosaccharides are structurally divided into an inner core (lipid A proximal) region and an outer core O-antigen region (Fig. 4a). To ascertain if the alterations in OM polysaccharides modify the barrier penetration and antimicrobial properties of the peptides, we determined the MIC of the peptides against 4 cell-wall defective mutants of E. coli (Fig. 4a). We report the MIC ratio (i.e., MICmut/MICwt) which is the ratio of MIC of peptides/antibiotics against oligosaccharides truncated mutant strains over MIC of wild type (D21) strains. For antibiotics that access intracellular targets through porin pathways or peptides that bind to the lipid A part of the LPS, the MIC ratio is independent of LPS truncation (Fig. 4b). However, antibiotics or peptides which interact with outer or inner core polysaccharides of the LPS are expected to show changes in the MIC ratio.
All the peptide congeners were purchased from M/s. Mimotopes Pty Ltd, Australia. The peptides were used as such and the homogeneity of peptides were confirmed by HPLC. Unless otherwise stated all the chemicals and the antibiotics tested were purchased from Sigma Aldrich (Singapore) Pte Ltd. The florescent probe, BODIPY TR cadaverine (BC) was purchased from Molecular Probes/ Invitrogen (CA, USA). E. coli LPS outer core polysaccharide truncated mutant strains were obtained from CGSG, The Coli Genetic Stock Centre, Yale University, […], USA. Relevant genotype of the strains are, D21 (rfa+); D21e19 (rfa-11) is a deficient mutant in carbohydrates close to the O-antigen part; D21e7 (rfa-1) is deficient in galactose as well as O-antigen; D21f1 (rfa-1, rfa21) lacks phosphate groups in the LPS has glucose and heptose intact; D21f2 (rfa-1, rfa-31) is deficient in heptose of the inner core[57][58].
(§1) MIC of each peptide was determined using the microdilution method in a 96 well microtitre plates (SPL Life Sciences Co., Ltd, Korea). Two-fold serial dilutions of each peptide in Mueller-Hinton Broth (MHB) was prepared from a 1 mg/ml stock solution of the peptide in the same broth, to obtain a final concentration in the range of 0.0976–50 μg/ml in each well. Bacterial suspensions (P. aeruginosa ATCC 27853, P. aeruginosa 4877, P. aeruginosa 23155, K. pneumoniae ATCC 10031 and K. pneumoniae 4299) were prepared by suspending the overnight cultured bacteria in saline and adjusting the inoculum to ~10^8 colony forming units (CFU) per ml. A further 150-fold dilution was then prepared in MHB to achieve a final cell density of 10^5–10^6 CFU/ml. In each well, 100 μl of inoculum was mixed with the equal volume of peptides at their 2× concentration. Positive and negative controls contained 200 μl of inoculum (without any peptide) and broth alone (no peptide/inoculum) respectively. Another negative control in which MHB containing 200 μl of peptide alone in its highest concentration tested (50 μg/ml) was also included to ensure that the optical density measured in the test wells was not due to turbidity of the peptides in solution. The 96 well polystyrene plates were then incubated at 37 °C for 24 h and the optical density at 600 nm (OD600) was measured every 30 min continuously using a TECAN microplate reader (TECAN Infinite 200, Austria). All the experiments were performed in two independent duplicates and the MIC was determined as the lowest peptide concentration in which no visible growth was observed.

P. aeruginosa DR4877/07 [2] = assay: microbe, parasite or virus in culture; conditions: Pseudomonas aeruginosa, DR4877/07, 24 h, read-out: MIC of antibiotics
Method: as §1, with “Austria).” for “Austria). All the experiments were performed in two independent duplicates and the MIC was determined as the lowest peptide concentration in which no visible growth was observed.”

P. aeruginosa DR4877/07 [3] = assay type: cell-based; conditions: for FICI of B2088-antibiotic combination: lowest FICI reported, two independent duplicates; for Fold decrease in the MIC of antibiotics at sub-lethal/sub-inhibitory concentrations of B2088: multidrug resistant P. aeruginosa 4877
In short: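 Checkerboard combinations of peptide and antibiotic, each 2-fold diluted up to 1× MIC in MHB, were tested against ~10^6 CFU/ml final inoculum. Plates were incubated 24 h at 37 °C, with growth read at OD600. FICI was the sum of the combination-to-alone MIC ratios for each agent, and the lowest FICI from duplicate experiments was reported.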

K. pneumonia 4299 [4] = assay: microbe, parasite or virus in culture; assay type: cell-based, K. pneumoniae; conditions: Klebsiella pneumoniae, 4299; individual peptide/antibiotics; read-out: MIC against K. pneumoniae 4299
In short: (§2)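 Peptides two-fold diluted in Mueller-Hinton Broth (0.0976–50 μg/ml final) against 10^5–10^6 CFU/ml inoculum, 37 °C for 24 h with OD600 monitored every 30 min. MIC = lowest concentration with no visible growth; two independent duplicates.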

K. pneumoniae 07955 = assay: microbe, parasite or virus in culture; assay type: cell-based; conditions: Klebsiella pneumoniae, 07955; individual peptide/antibiotics; read-out: MIC against K. pneumoniae 07955
K. pneumoniae 31158 = assay: microbe, parasite or virus in culture; assay type: cell-based; conditions: Klebsiella pneumoniae, 31158; individual peptide/antibiotics; read-out: MIC against K. pneumoniae 31158
K. pneumonia 07955 = assay: Checkerboard assay; assay type: cell-based, K. pneumoniae; conditions: for Fractional inhibitory concentration of B2088 used for FICI calculation: first number in parenthesis, in combination with the labelled antibiotic; for Fractional inhibitory concentration of antibiotic used for FICI calculation: second number in parenthesis, in combination with B2088
Method: (§3) The synergism between peptides with conventional antibiotics was evaluated using checkerboard assays. For a comparison polymyxin B (PMB) was also tested against each antibiotic. From their stock solutions, two-fold dilutions of each antibiotic and peptide to 1× MIC were prepared in MHB. 50 μl of each peptide concentration was added into the wells of a 96-well polystyrene plates (SPL Life Sciences Co. Ltd, Korea) in a horizontal orientation and the same volume of each antibiotic concentration were then added in a vertical orientation. Bacterial suspensions were prepared in MHB to yield final cell density of ~10^6 CFU/ml and 100 μl of bacterial suspension was mixed with each peptide-antibiotic combinations. This procedure was repeated for wells containing 200 μl of peptide alone and 200 μl of antibiotic alone in various concentrations. The positive and negative controls contained 200 μl of inoculum and MHB alone respectively. The plates were incubated at 37 °C for 24 hours and the optical density at 600 nm (OD600) was monitored as before. Fractional inhibitory concentration index (FICI) for all antibiotic- peptide combinations was calculated through the summation of (MIC of peptide in the combination/ MIC of peptide alone) and (MIC of antibiotics in combination/MIC of antibiotic alone). The experiments were performed in two independent duplicates and the combinations that gave the lowest FICI values was reported.

K. pneumonia 31158 = assay: Checkerboard assay; assay type: cell-based, K. pneumoniae; conditions: for Fractional inhibitory concentration of B2088 used for FICI calculation: first number in parenthesis, in combination with the labelled antibiotic; for Fractional inhibitory concentration of antibiotic used for FICI calculation: second number in parenthesis, in combination with B2088
Method: as §3

K. pneumonia 4299 [5] = assay: Checkerboard assay; assay type: cell-based, K. pneumoniae; conditions: for Fractional inhibitory concentration of B2088 used for FICI calculation: first number in parenthesis, in combination with the labelled antibiotic; for Fractional inhibitory concentration of antibiotic used for FICI calculation: second number in parenthesis, in combination with B2088
Method: as §3

P. aeruginosa ATCC 27853 = assay: microbe, parasite or virus in culture; assay type: cell-based; conditions: Pseudomonas aeruginosa, ATCC27853; antibiotic alone; read-out: MIC of gentamicin against this strain
In short: as §2

P. aeruginosa ATCC 9027 [6] = assay: MIC, microdilution; assay type: cell-based
P. aeruginosa ATCC 9027 [7] = assay: Checkerboard assay; assay type: cell-based
Method: as §3

[8] = MIC of B2088 6.25 μg/ml, MHB, ~10^6 CFU/ml, 37 °C, 24 h

Compound | MIC ratio (MICmut/MICwt) [1] | MIC (P. aeruginosa DR4877/07 [2]) [µg/mL] | MIC of antibiotics in the presence of ¼× sub-MIC of B2088 (P. aeruginosa DR4877/07 [3]; [8]) [µg/mL] | MIC of antibiotics in the presence of ½× sub-MIC of B2088 (P. aeruginosa DR4877/07 [3]; [8]) [µg/mL] | FICI of B2088-antibiotic combination (P. aeruginosa DR4877/07 [3]) | MIC (K. pneumonia 4299 [4]) [µg/mL] | MIC (K. pneumoniae 07955) [µg/mL] | MIC (K. pneumoniae 31158) [µg/mL] | Fold decrease in the MIC of antibiotics at sub-lethal/sub-inhibitory concentrations of B2088 (P. aeruginosa DR4877/07 [3]) [fold] | Fractional Inhibitory Concentration Index of B2088 with the antibiotic (K. pneumonia 07955) | Fractional inhibitory concentration of B2088 used for FICI calculation (K. pneumonia 07955) | Fractional inhibitory concentration of antibiotic used for FICI calculation (K. pneumonia 07955) | Fractional Inhibitory Concentration Index of B2088 with the antibiotic (K. pneumonia 31158) | Fractional inhibitory concentration of B2088 used for FICI calculation (K. pneumonia 31158) | Fractional inhibitory concentration of antibiotic used for FICI calculation (K. pneumonia 31158) | Fractional Inhibitory Concentration Index of B2088 with the antibiotic (K. pneumonia 4299 [5]) | Fractional inhibitory concentration of B2088 used for FICI calculation (K. pneumonia 4299 [5]) | Fractional inhibitory concentration of antibiotic used for FICI calculation (K. pneumonia 4299 [5]) | other results
CC1(C)S[C@@H]2[C@H](NC(=O)C(C(=O)O)c3ccccc3)C(=O)N2[C@H]1C(=O)O (stereo partly drawn) [Carbenicillin, reference compound] | did not show any change | 1600 | 800 | 200 | 0.63 |  |  |  |  |  |  |  |  |  |  |  |  |  | 
O=C(N[C@H](CO)[C@H](O)c1ccc([N+](=O)[O-])cc1)C(Cl)Cl [Chloramphenicol] | marked increase | 200 | 50 | 25 | 0.5 | 12.5 (≈ 38.7 µM) | 50 (≈ 155 µM) | 3.12 (≈ 9.67 µM) | 4 | 0.38 | 0.13 | 0.25 | 0.63 | 0.5 | 0.13 | 0.38 | 0.13 | 0.25 | FICI of polymyxin B-antibiotic combination (P. aeruginosa DR4877/07 [3]): 0.63; MIC of antibiotics in the presence of ⅛× sub-MIC of B2088 (P. aeruginosa DR4877/07 [3]; [8]): 100 µg/mL
CNC(C)C1CCC(N)C(OC2C(N)CC(N)C(OC3OCC(C)(O)C(NC)C3O)C2O)O1 (stereo not drawn) [Gentamicin] | marked increase |  |  |  |  | 0.39 (≈ 0.817 µM) | 100 (≈ 209 µM) | 0.05 (≈ 0.105 µM) | 4 | 0.75 | 0.25 | 0.5 | 0.31 | 0.25 | 0.06 | 0.37 | 0.125 | 0.25 | MIC (P. aeruginosa ATCC 27853): 0.04 µg/mL; MIC of antibiotics (Table S1) (P. aeruginosa ATCC 9027 [6]; Gentamycin alone, ATCC 9027): 0.39 µg/mL; MIC of antibiotics (P. aeruginosa ATCC 9027 [6]; gentamicin alone, ATCC 9027 used because DR4877/07 too resistant): 0.39 µg/mL; FICI of polymyxin B-antibiotic combination (P. aeruginosa ATCC 9027 [7]; Gentamycin): 1.0; MIC of antibiotics in the presence of ½ × sub-MIC of Polymyxin B (P. aeruginosa ATCC 9027 [7]; Gentamycin): 0.195 µg/mL; MIC of antibiotics in the presence of ¼× sub-MIC of B2088 (P. aeruginosa ATCC 9027 [7]; gentamicin): 0.098 µg/mL; MIC of antibiotics in the presence of ½× sub-MIC of B2088 (P. aeruginosa ATCC 9027 [7]; gentamicin): 0.024 µg/mL; MIC of antibiotics in the presence of ⅛× sub-MIC of B2088 (P. aeruginosa ATCC 9027 [7]; gentamicin): 0.195 µg/mL; FICI of B2088-antibiotic combination (P. aeruginosa ATCC 9027 [7]; gentamicin, lowest FICI reported): 0.5
